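Cells were grown in 96-well plates and exposed to each compound for 48 hours at five concentrations; endpoints were interpolated linearly between bracketing concentrations, or set to the highest concentration if not reached. Abbreviation: GI50, concentration required for 50% inhibition of growth.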 Activity calls are given as the source filed them. Rule as the data show it: active = GI50 up to about 1.1 µM and inactive = higher.

Among the test systems are A498; A549; CAKI-1; DMS-114; KM-20L2; M19-MEL; OVCAR-4; SK-MEL-28; SK-MEL-2; SNB-19; DMS-273; HCT-15; LXFL 529; NCI-H226; DU-145; MDA-MB-231; NCI/ADR-RES; PC-3.
What all share (assay): NCI tumour cell line growth inhibition, 48 h

As to `CN(C)/N=C(/c1nc2ccc(Cl)cc2nc1O)C(O)c1ccc(C(O)/C(=N\N(C)C)c2nc3ccc(Cl)cc3nc2O)cc1` (stereo not drawn), the GI50 in the experiment on A498 is 61 µM (inactive); in the experiment with A549, > 100 µM (inactive); with CAKI-1, > 100 µM (inactive); with DMS-114 it was 53.7 µM (inactive); in the experiment on KM-20L2, 84.9 µM (inactive); with M19-MEL, > 100 µM (inactive). In addition, the GI50 in the experiment on OVCAR-4, in the experiment on SK-MEL-28, with SK-MEL-2 and in the experiment with SNB-19 was > 100 µM (inactive) each time.

For the compound `COC(=O)c1ccc(NC(=O)c2cc(OC)c(OC)c(OC)c2)cc1`, the GI50 in the experiment with A498 is 3.44 µM (inactive); in the experiment on A549, 3.38 µM (inactive); in the experiment on CAKI-1 it was 2.16 µM (inactive); with DMS-114, 0.305 µM (active); with DMS-273 it was 0.327 µM (active); in the experiment on HCT-15 it was 1.08 µM. The GI50 with KM-20L2 was 1.44 µM (inactive); with LXFL 529, 1.64 µM (inactive); with M19-MEL it was 1.04 µM (active); with NCI-H226, 2.54 µM (inactive); in the experiment on OVCAR-4, 18.9 µM (inactive); with SK-MEL-28 it was 0.798 µM (active). In addition, the GI50 with SK-MEL-2 is 0.798 µM (active); with SNB-19, 1 µM (active).

Consider `O=C1/C(=C/c2ccc(Oc3ccccc3)cc2)N=C(c2ccccc2)N1c1ccc(S(=O)(=O)Nc2nccs2)cc1`, for which the GI50 in the experiment on A498 is 18.1 µM (inactive); with A549, 25.8 µM (inactive); in the experiment with CAKI-1, 21.7 µM (inactive); in the experiment on DU-145, 47 µM (inactive); in the experiment on HCT-15, 8.07 µM; in the experiment on MDA-MB-231 it was 28.2 µM (inactive). The GI50 in the experiment with NCI-H226 is 33.4 µM (inactive); in the experiment on NCI/ADR-RES, 13.1 µM (inactive); with OVCAR-4, 38.6 µM (inactive); in the experiment with PC-3, 25.4 µM (inactive); in the experiment with SK-MEL-28 it was 22.8 µM (inactive); in the experiment on SK-MEL-2, 2.63 µM (inactive). For the same compound, the GI50 in the experiment on SNB-19 was 35.3 µM (inactive).

`CC(C)(C)OC(=O)NC(Cc1ccc(OCc2ccccc2)cc1)C(=O)NC(COCc1ccccc1)C(=O)Oc1c(Cl)c(Cl)c(Cl)c(Cl)c1Cl` (stereo not drawn): the GI50 in the experiment on A498 is 23.1 µM (inactive); in the experiment with A549, 27.1 µM (inactive); with CAKI-1 it was 19.9 µM (inactive); with DU-145, 14.8 µM (inactive); in the experiment with HCT-15, 17.8 µM; with MDA-MB-231, 13.5 µM (inactive). The GI50 in the experiment on NCI-H226 was 21.4 µM (inactive); in the experiment with NCI/ADR-RES it was 21.2 µM (inactive); with OVCAR-4, 26.5 µM (inactive); in the experiment with PC-3 it was 19.5 µM (inactive); in the experiment on SK-MEL-28, 25.1 µM (inactive); in the experiment with SK-MEL-2 it was 19 µM (inactive). For the same compound, the GI50 with SNB-19 is 29.3 µM (inactive).

Consider `CS(=O)(=O)c1n[nH]c2nc(O)nc(O)c12`, for which the GI50 with A498 was > 10 µM (inactive); in the experiment with A549, > 10 µM (inactive); in the experiment with CAKI-1, > 10 µM (inactive); in the experiment on DU-145, > 10 µM (inactive); in the experiment with HCT-15, greater than 10 µM; in the experiment with MDA-MB-231, > 10 µM (inactive). Also, the GI50 in the experiment on NCI-H226, in the experiment on NCI/ADR-RES, with OVCAR-4, in the experiment with PC-3, in the experiment on SK-MEL-28 and with SK-MEL-2 was > 10 µM (inactive) in each case. Moreover, the GI50 with SNB-19 is > 10 µM (inactive).

For the compound `COc1cc(CO)c(CC(=O)NCCCc2ccccc2)cc1OC`, the GI50 with A498 is > 100 µM (inactive); in the experiment with A549, > 100 µM (inactive); in the experiment with CAKI-1, > 100 µM (inactive); with DU-145, > 100 µM (inactive); with HCT-15, greater than 100 µM; in the experiment with MDA-MB-231, > 100 µM (inactive). For the same compound, the GI50 is > 100 µM (inactive) with NCI-H226; 99.1 µM (inactive) in the experiment with NCI/ADR-RES; > 100 µM (inactive) in the experiment on OVCAR-4; > 100 µM (inactive) in the experiment with PC-3; > 100 µM (inactive) with SK-MEL-28; > 100 µM (inactive) in the experiment with SK-MEL-2. Also, the GI50 in the experiment on SNB-19 was > 100 µM (inactive).

For the compound `CCOC(=O)c1cn2c(n1)sc1cc([N+](=O)[O-])ccc12`, the GI50 was > 100 µM (inactive) in the experiment with A498; > 100 µM (inactive) with A549; > 100 µM (inactive) in the experiment with CAKI-1; > 100 µM (inactive) in the experiment on DU-145; greater than 100 µM with HCT-15; 38.5 µM (inactive) with MDA-MB-231. The GI50 in the experiment with NCI-H226, in the experiment with NCI/ADR-RES, with OVCAR-4, with PC-3, in the experiment on SK-MEL-28 and in the experiment on SK-MEL-2 was > 100 µM (inactive) throughout. In addition, the GI50 in the experiment with SNB-19 is 78.2 µM (inactive).

As to `O=P1(O)c2ccccc2CS(=O)(=O)Cc2ccccc21`, the GI50 is > 100 µM (inactive) in the experiment on A498; > 100 µM (inactive) in the experiment on A549; > 100 µM (inactive) with CAKI-1; > 100 µM (inactive) in the experiment with DU-145; greater than 100 µM in the experiment with HCT-15; > 100 µM (inactive) in the experiment with MDA-MB-231. In addition, the GI50 in the experiment on NCI-H226, in the experiment with NCI/ADR-RES, in the experiment on OVCAR-4, with PC-3, with SK-MEL-28 and in the experiment with SK-MEL-2 was > 100 µM (inactive) each time. Further, in the experiment on SNB-19, the GI50 was > 100 µM (inactive).

Take `COC(=O)Cc1c([C@H]2[C@H](CC(=O)OC)c3ccccc3N2C(=O)C(F)(F)F)[nH]c2ccccc12`: the GI50 with A498 is 90.2 µM (inactive); in the experiment with A549, 31.3 µM (inactive); in the experiment on CAKI-1, 41.3 µM (inactive); in the experiment on DU-145, 63 µM (inactive); in the experiment with HCT-15 it was 8.18 µM; with MDA-MB-231, 20.7 µM (inactive). The GI50 is 2 µM (inactive) in the experiment on NCI-H226; 21.5 µM (inactive) in the experiment with NCI/ADR-RES; 56.6 µM (inactive) in the experiment on OVCAR-4; 11.4 µM (inactive) with PC-3; 34.5 µM (inactive) in the experiment with SK-MEL-28; 25 µM (inactive) in the experiment on SK-MEL-2. Besides, the GI50 with SNB-19 is 54.3 µM (inactive).

Turning to `COc1ccc(C(C2C(=O)N(C)C(=O)N(C)C2=O)C(F)(F)C(=O)N(C)C)cc1` (stereo not drawn), the GI50 in the experiment with A498 was > 100 µM (inactive); in the experiment on A549, > 100 µM (inactive); in the experiment on CAKI-1, > 100 µM (inactive); with DU-145, > 100 µM (inactive); with HCT-15, greater than 100 µM; in the experiment with MDA-MB-231 it was > 100 µM (inactive). In addition, the GI50 in the experiment with NCI-H226, in the experiment with NCI/ADR-RES, with OVCAR-4, with PC-3, in the experiment on SK-MEL-28 and in the experiment with SK-MEL-2 was > 100 µM (inactive) throughout. Besides, the GI50 with SNB-19 is > 100 µM (inactive).

As to `S=C(Cc1ccc2c(c1)Sc1ccccc1O2)N1CCOCC1`, the GI50 with A498 is 50.6 µM (inactive); in the experiment with A549, 35.7 µM (inactive); with CAKI-1 it was 38.9 µM (inactive); in the experiment with DU-145, > 100 µM (inactive); in the experiment on HCT-15, 41.9 µM; in the experiment on MDA-MB-231 it was 58.7 µM (inactive). Further, the GI50 in the experiment on NCI-H226 was 28.8 µM (inactive); in the experiment with NCI/ADR-RES, 24.8 µM (inactive); in the experiment on OVCAR-4, > 100 µM (inactive); in the experiment on PC-3 it was 28.3 µM (inactive); with SK-MEL-28, 59.7 µM (inactive); in the experiment on SK-MEL-2 it was 66.7 µM (inactive). Moreover, in the experiment with SNB-19, the GI50 is > 100 µM (inactive).

For `CC(C)(CN1CCCCC1)C(=O)/C=C/c1c(Cl)cccc1Cl`, the GI50 with A498 was 1.57 µM (inactive); in the experiment with A549, 1.95 µM (inactive); in the experiment with CAKI-1, 1.08 µM (active); in the experiment on DU-145 it was 0.769 µM (active); with HCT-15 it was 0.879 µM; in the experiment on MDA-MB-231, 0.789 µM (active). The GI50 was 2.65 µM (inactive) in the experiment on NCI-H226; 1.86 µM (inactive) in the experiment with NCI/ADR-RES; 1.73 µM (inactive) in the experiment on OVCAR-4; 1.91 µM (inactive) in the experiment on PC-3; 1.56 µM (inactive) with SK-MEL-28; 1.49 µM (inactive) in the experiment with SK-MEL-2. The GI50 in the experiment with SNB-19 was 2.44 µM (inactive).

With `O=C(N/N=C1\C(=O)Nc2ccc(Br)cc21)/C(O)=C/C(=O)c1ccc(Cl)cc1`, the GI50 with A498 was 26.8 µM (inactive); in the experiment with A549, > 100 µM (inactive); in the experiment with CAKI-1 it was > 100 µM (inactive); in the experiment with DU-145, > 100 µM (inactive); in the experiment on HCT-15, 64.4 µM; with MDA-MB-231 it was 45.5 µM (inactive). In addition, the GI50 in the experiment on NCI-H226 was 75.2 µM (inactive); in the experiment on NCI/ADR-RES, > 100 µM (inactive); in the experiment on OVCAR-4, > 100 µM (inactive); in the experiment on PC-3 it was 77.1 µM (inactive); in the experiment with SK-MEL-28, 51.6 µM (inactive); in the experiment with SK-MEL-2, 18.7 µM (inactive). Besides, the GI50 in the experiment on SNB-19 was 50.4 µM (inactive).

Consider `CC(C(=O)NCCNC(=O)CCC(=O)N(C)O)C(=O)NCCNC(=O)CCC(=O)N(C)O`, for which the GI50 in the experiment on A498 is > 100 µM (inactive); in the experiment with A549, > 100 µM (inactive); in the experiment on CAKI-1, > 100 µM (inactive); in the experiment with DU-145, > 100 µM (inactive); with HCT-15 it was greater than 100 µM; with MDA-MB-231, > 100 µM (inactive). The GI50 in the experiment on NCI-H226 is > 100 µM (inactive); in the experiment on NCI/ADR-RES, > 100 µM (inactive); in the experiment on OVCAR-4, > 100 µM (inactive); in the experiment on PC-3, > 100 µM (inactive); in the experiment with SK-MEL-28 it was 5.71 µM (inactive); in the experiment with SK-MEL-2 it was > 100 µM (inactive). For the same compound, in the experiment on SNB-19, the GI50 is > 100 µM (inactive).

As for `CCOC(=O)C(NC(=O)N(C1=NCC(C)S1)C1CCCCC1)(OC)C(F)(F)F` (stereo not drawn), the GI50 was 16.4 µM (inactive) with A498; 39.1 µM (inactive) in the experiment on A549; 34.6 µM (inactive) with CAKI-1; 36.2 µM (inactive) in the experiment with DU-145; 30.1 µM in the experiment with HCT-15; 46.5 µM (inactive) with MDA-MB-231. The GI50 in the experiment with NCI-H226 was 21.1 µM (inactive); in the experiment on NCI/ADR-RES, 65.5 µM (inactive); in the experiment on OVCAR-4, 40.3 µM (inactive); with PC-3, 30.8 µM (inactive); in the experiment on SK-MEL-28, 47.2 µM (inactive); in the experiment on SK-MEL-2, 34 µM (inactive). For the same compound, the GI50 in the experiment on SNB-19 is 49.3 µM (inactive).

(Values after ChEMBL document CHEMBL1201862, “PubChem BioAssay data set” (2004).)
